The nature of data set [1]: Example 4b: breath acetone and 2-butanone by Type 1 mGC after soft gel with 2-butanol and isopropyl alcohol. It counts as in vivo, human. Particulars: 2-butanol (40 mg) and isopropyl alcohol (30 mg). How it is done:
Shown in Panel A of FIG. 76 is the 1st derivative mGC response (proportional to EDIM breath concentration) in a Type 1 SMART Device for acetone and 2-butanone as a function of breath sampling times post ingestion of the capsule.
Panel B depicts the change from baseline of the 1st derivative mGC response. Time 0 is baseline (immediately before capsule is ingested containing the two AEMs). […] Note how the 2-butanone levels in breath begin to fall after 20 min, whereas those of acetone slowly continue to rise over the study period.

For data set [2] the following is noted: cited from earlier work.

This is an account of results in US20170074857A1, “MEDICATION ADHERENCE MONITORING DEVICE” (UNIVERSITY OF FLORIDA RESEARCH FOUNDATION, INC., priority 2014, published 2017).

Structures are written as SMILES.

In the case of `CCC(C)=O` [Formulation 2-butanone, 2-butanone], in data set [1], the “half life in breath” value was “about 45 minutes”. The “Tmax of breath marker” value in data set [1] (fasting subject) was 20 min. The “blood elimination t1/2” value in data set [2] (in vivo) is 49 to 96 min. In addition, the “pulmonary uptake from air” value in data set [2] (inhalation exposure 100,000-200,000 ppb) was 70%.
